According to ChEMBL document CHEMBL1201862, “PubChem BioAssay data set” (2004):
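Compound exposure: 48 hours, 5 concentrations, 96-well plates. The concentration for 50% growth inhibition is given as GI50.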 The source made the active and inactive calls. Rule as the data show it: active = GI50 up to about 1.1 µM and inactive = higher.

Tests used:
Assay in all cases: DTP human tumour cell line panel, 48 h
[1] = tested on: HOP-62
[2] = tested on: NCI-H226
[3] = tested on: COLO 205
[4] = tested on: MDA-MB-435
[5] = tested on: OVCAR-5
[6] = tested on: HCT-116
[7] = tested on: NCI-H460
[8] = tested on: CAKI-1
[9] = tested on: UACC-257
[10] = tested on: SF-295
[11] = tested on: SK-MEL-5
[12] = tested on: SR
[13] = tested on: K562
[14] = tested on: PC-3
[15] = tested on: HCC 2998
[16] = tested on: BT-549
[17] = tested on: MDA-N
[18] = tested on: SNB-75
[19] = tested on: M14
[20] = tested on: RXF 393
[21] = tested on: EKVX
[22] = tested on: HT-29
[23] = tested on: SK-MEL-2
[24] = tested on: MOLT-4
[25] = tested on: MDA-MB-231
[26] = tested on: IGROV-1
[27] = tested on: SK-MEL-28
[28] = tested on: HCT-15
[29] = tested on: OVCAR-4
[30] = tested on: SF-268
[31] = tested on: UACC-62
[32] = tested on: 786-0
[33] = tested on: NCI-H522
[34] = tested on: Hs-578T
[35] = tested on: RPMI-8226
[36] = tested on: T47D
[37] = tested on: SK-OV-3
[38] = tested on: SF-539
[39] = tested on: SW-620
[40] = tested on: HOP-92
[41] = tested on: TK-10
[42] = tested on: SNB-19
[43] = tested on: OVCAR-8
[44] = tested on: MCF7
[45] = tested on: A498
[46] = tested on: ACHN
[47] = tested on: NCI/ADR-RES
[48] = tested on: SN12C
[49] = tested on: UO-31
[50] = tested on: HL-60
[51] = tested on: NCI-H23
[52] = tested on: DU-145
[53] = tested on: KM12
[54] = tested on: OVCAR-3
[55] = tested on: A549
[56] = tested on: U-251
[57] = tested on: CCRF-CEM
[58] = tested on: Malme-3M
[59] = tested on: LOX IMVI

SMILES: COC(=O)CCSC1=CC(=O)c2nc3ccccc3c3ccnc1c23
- GI50 [1]: 33 µM (inactive)
- GI50 [2]: 47.1 µM (inactive)
- GI50 [3]: 13.6 µM (inactive)
- GI50 [4]: 7.4 µM (inactive)
- GI50 [5]: 42.7 µM (inactive)
- GI50 [6]: 20.1 µM (inactive)
- GI50 [7]: 16.1 µM (inactive)
- GI50 [8]: 18.8 µM (inactive)
- GI50 [9]: 17.2 µM (inactive)
- GI50 [10]: 58.7 µM (inactive)
- GI50 [11]: 18.8 µM (inactive)
- GI50 [12]: 5.32 µM (inactive)
- GI50 [13]: 8.47 µM (inactive)
- GI50 [14]: 15.4 µM (inactive)
- GI50 [15]: 14.3 µM (inactive)
- GI50 [16]: 17.7 µM (inactive)
- GI50 [17]: 28 µM (inactive)
- GI50 [18]: > 100 µM (inactive)
- GI50 [19]: 21.9 µM (inactive)
- GI50 [20]: 20.3 µM (inactive)
- GI50 [21]: 18.9 µM (inactive)
- GI50 [22]: 18 µM (inactive)
- GI50 [23]: 23.2 µM (inactive)
- GI50 [24]: 9.95 µM (inactive)
- GI50 [25]: 27.5 µM (inactive)
- GI50 [26]: 16.7 µM (inactive)
- GI50 [27]: 21.9 µM (inactive)
- GI50 [28]: 13.6 µM
- GI50 [29]: 19.8 µM (inactive)
- GI50 [30]: 15.1 µM (inactive)
- GI50 [31]: 8.09 µM (inactive)
- GI50 [32]: 19.9 µM (inactive)
- GI50 [33]: 1.39 µM (inactive)
- GI50 [34]: 23.4 µM (inactive)
- GI50 [35]: 23.6 µM (inactive)
- GI50 [36]: 18.7 µM (inactive)
- GI50 [37]: 54.3 µM (inactive)
- GI50 [38]: 15.7 µM (inactive)
- GI50 [39]: 22.2 µM (inactive)
- GI50 [40]: 25.7 µM (inactive)
- GI50 [41]: 14.2 µM (inactive)
- GI50 [42]: > 100 µM (inactive)
- GI50 [43]: 17.1 µM (inactive)
- GI50 [44]: 20.2 µM (inactive)
- GI50 [45]: > 84.7 µM (inactive)
- GI50 [46]: 19.4 µM (inactive)
- GI50 [47]: 15.3 µM (inactive)
- GI50 [48]: 19.7 µM (inactive)
- GI50 [49]: 15.3 µM (inactive)
- GI50 [50]: 3.61 µM (inactive)
- GI50 [51]: 15.6 µM (inactive)
- GI50 [52]: 22.2 µM (inactive)
- GI50 [53]: 16.2 µM (inactive)
- GI50 [54]: 2.68 µM (inactive)
- GI50 [55]: > 93.1 µM (inactive)
- GI50 [56]: 32.4 µM (inactive)
- GI50 [57]: 4.49 µM (inactive)

SMILES: CC1(C)CCC2(C(=O)O)C(O)CC3(C)C(=CCC4C5(C)CCC(OC6OCC(O)C(O)C6OC6OCC(O)C(O)C6OC6OCC(O)C(OC7OC(CO)C(O)C(O)C7O)C6O)C(C)(C)C5CCC43C)C2C1 (centres undefined)
- GI50 [1]: > 100 µM (inactive)
- GI50 [2]: 23.7 µM (inactive)
- GI50 [3]: > 100 µM (inactive)
- GI50 [4]: 28.4 µM (inactive)
- GI50 [5]: 33.8 µM (inactive)
- GI50 [6]: > 100 µM (inactive)
- GI50 [7]: > 100 µM (inactive)
- GI50 [8]: > 100 µM (inactive)
- GI50 [9]: 76.4 µM (inactive)
- GI50 [10]: 20.3 µM (inactive)
- GI50 [11]: > 100 µM (inactive)
- GI50 [12]: 4.21 µM (inactive)
- GI50 [13]: 25.6 µM (inactive)
- GI50 [14]: 44.6 µM (inactive)
- GI50 [15]: 40.8 µM (inactive)
- GI50 [16]: 29.7 µM (inactive)
- GI50 [17]: 20.8 µM (inactive)
- GI50 [18]: 17.9 µM (inactive)
- GI50 [19]: 40.1 µM (inactive)
- GI50 [20]: 20 µM (inactive)
- GI50 [21]: 37.9 µM (inactive)
- GI50 [58]: 27.2 µM (inactive)
- GI50 [22]: > 100 µM (inactive)
- GI50 [23]: 24.5 µM (inactive)
- GI50 [25]: > 100 µM (inactive)
- GI50 [26]: > 100 µM (inactive)
- GI50 [27]: 36.5 µM (inactive)
- GI50 [28]: > 100 µM
- GI50 [29]: 28.5 µM (inactive)
- GI50 [30]: 21.8 µM (inactive)
- GI50 [31]: 31.7 µM (inactive)
- GI50 [32]: > 100 µM (inactive)
- GI50 [33]: 19.8 µM (inactive)
- GI50 [34]: 28.1 µM (inactive)
- GI50 [36]: 97.1 µM (inactive)
- GI50 [37]: 19.8 µM (inactive)
- GI50 [38]: > 100 µM (inactive)
- GI50 [39]: 39 µM (inactive)
- GI50 [40]: 29.4 µM (inactive)
- GI50 [41]: > 100 µM (inactive)
- GI50 [42]: 20 µM (inactive)
- GI50 [43]: > 100 µM (inactive)
- GI50 [44]: > 100 µM (inactive)
- GI50 [45]: 26.9 µM (inactive)
- GI50 [46]: 35.1 µM (inactive)
- GI50 [47]: > 100 µM (inactive)
- GI50 [48]: 23.3 µM (inactive)
- GI50 [49]: 17.3 µM (inactive)
- GI50 [50]: 24.7 µM (inactive)
- GI50 [51]: 21 µM (inactive)
- GI50 [59]: 47.5 µM (inactive)
- GI50 [52]: > 100 µM (inactive)
- GI50 [53]: 21.7 µM (inactive)
- GI50 [54]: > 100 µM (inactive)
- GI50 [55]: 33.7 µM (inactive)
- GI50 [56]: 33.7 µM (inactive)
- GI50 [57]: 31 µM (inactive)
